From the OligoGym collection
Oligonucleotides are given in HELM: sugar(base)linkage, 5' to 3'; d 2'-deoxyribose, r ribose, m 2'-O-methylribose, p phosphate. ss, as = sense and antisense strand

These substances were tested against UBE2D3 (assay: reporter assay of Huesken 2005). Conditions: siRNA.
Note: test concentration or dose not given here.

Substance	normalised inhibition (eCFP-eYFP dual reporter)
RNA1{r(G)p.r(C)p.r(A)p.r(C)p.r(A)p.r(A)p.r(U)p.r(G)p.r(U)p.r(U)p.r(C)p.r(U)p.r(G)p.r(C)p.r(A)p.r(G)p.r(G)p.r(U)p.r(C)p.d(T)p.d(T)}|RNA2{r(G)p.r(A)p.r(C)p.r(C)p.r(U)p.r(G)p.r(C)p.r(A)p.r(G)p.r(A)p.r(A)p.r(C)p.r(A)p.r(U)p.r(U)p.r(G)p.r(U)p.r(G)p.r(C)p.d(T)p.d(G)}$$$RNA1{StrandType:ss}|RNA2{StrandType:as}$	100%
RNA1{r(U)p.r(C)p.r(A)p.r(C)p.r(U)p.r(G)p.r(C)p.r(U)p.r(A)p.r(U)p.r(G)p.r(U)p.r(G)p.r(A)p.r(U)p.r(C)p.r(C)p.r(A)p.r(A)p.d(T)p.d(T)}|RNA2{r(U)p.r(U)p.r(G)p.r(G)p.r(A)p.r(U)p.r(C)p.r(A)p.r(C)p.r(A)p.r(U)p.r(A)p.r(G)p.r(C)p.r(A)p.r(G)p.r(U)p.r(G)p.r(A)p.d(A)p.d(C)}$$$RNA1{StrandType:ss}|RNA2{StrandType:as}$	95.2%
RNA1{r(C)p.r(C)p.r(U)p.r(A)p.r(C)p.r(A)p.r(G)p.r(A)p.r(C)p.r(U)p.r(A)p.r(C)p.r(C)p.r(C)p.r(C)p.r(U)p.r(U)p.r(C)p.r(A)p.d(T)p.d(T)}|RNA2{r(U)p.r(G)p.r(A)p.r(A)p.r(G)p.r(G)p.r(G)p.r(G)p.r(U)p.r(A)p.r(G)p.r(U)p.r(C)p.r(U)p.r(G)p.r(U)p.r(A)p.r(G)p.r(G)p.d(A)p.d(A)}$$$RNA1{StrandType:ss}|RNA2{StrandType:as}$	99.9%
RNA1{r(C)p.r(C)p.r(U)p.r(A)p.r(G)p.r(U)p.r(G)p.r(C)p.r(C)p.r(A)p.r(G)p.r(A)p.r(G)p.r(A)p.r(U)p.r(U)p.r(G)p.r(C)p.r(A)p.d(T)p.d(T)}|RNA2{r(U)p.r(G)p.r(C)p.r(A)p.r(A)p.r(U)p.r(C)p.r(U)p.r(C)p.r(U)p.r(G)p.r(G)p.r(C)p.r(A)p.r(C)p.r(U)p.r(A)p.r(G)p.r(G)p.d(G)p.d(G)}$$$RNA1{StrandType:ss}|RNA2{StrandType:as}$	86.2%
RNA1{r(C)p.r(A)p.r(A)p.r(U)p.r(U)p.r(U)p.r(C)p.r(U)p.r(A)p.r(A)p.r(A)p.r(G)p.r(U)p.r(U)p.r(C)p.r(U)p.r(U)p.r(U)p.r(U)p.d(T)p.d(T)}|RNA2{r(A)p.r(A)p.r(A)p.r(A)p.r(G)p.r(A)p.r(A)p.r(C)p.r(U)p.r(U)p.r(U)p.r(A)p.r(G)p.r(A)p.r(A)p.r(A)p.r(U)p.r(U)p.r(G)p.d(T)p.d(T)}$$$RNA1{StrandType:ss}|RNA2{StrandType:as}$	80.6%
RNA1{r(C)p.r(A)p.r(G)p.r(C)p.r(A)p.r(C)p.r(A)p.r(A)p.r(U)p.r(G)p.r(U)p.r(U)p.r(C)p.r(U)p.r(G)p.r(C)p.r(A)p.r(G)p.r(G)p.d(T)p.d(T)}|RNA2{r(C)p.r(C)p.r(U)p.r(G)p.r(C)p.r(A)p.r(G)p.r(A)p.r(A)p.r(C)p.r(A)p.r(U)p.r(U)p.r(G)p.r(U)p.r(G)p.r(C)p.r(U)p.r(G)p.d(G)p.d(A)}$$$RNA1{StrandType:ss}|RNA2{StrandType:as}$	87.8%
RNA1{r(G)p.r(A)p.r(C)p.r(U)p.r(A)p.r(C)p.r(C)p.r(C)p.r(C)p.r(U)p.r(U)p.r(C)p.r(A)p.r(A)p.r(A)p.r(C)p.r(C)p.r(A)p.r(C)p.d(T)p.d(T)}|RNA2{r(G)p.r(U)p.r(G)p.r(G)p.r(U)p.r(U)p.r(U)p.r(G)p.r(A)p.r(A)p.r(G)p.r(G)p.r(G)p.r(G)p.r(U)p.r(A)p.r(G)p.r(U)p.r(C)p.d(T)p.d(G)}$$$RNA1{StrandType:ss}|RNA2{StrandType:as}$	87.6%
RNA1{r(C)p.r(U)p.r(A)p.r(A)p.r(G)p.r(G)p.r(U)p.r(U)p.r(G)p.r(C)p.r(A)p.r(U)p.r(U)p.r(U)p.r(A)p.r(C)p.r(A)p.r(A)p.r(C)p.d(T)p.d(T)}|RNA2{r(G)p.r(U)p.r(U)p.r(G)p.r(U)p.r(A)p.r(A)p.r(A)p.r(U)p.r(G)p.r(C)p.r(A)p.r(A)p.r(C)p.r(C)p.r(U)p.r(U)p.r(A)p.r(G)p.d(G)p.d(T)}$$$RNA1{StrandType:ss}|RNA2{StrandType:as}$	80.9%
RNA1{r(U)p.r(A)p.r(U)p.r(G)p.r(U)p.r(U)p.r(U)p.r(C)p.r(A)p.r(U)p.r(U)p.r(G)p.r(G)p.r(C)p.r(A)p.r(A)p.r(G)p.r(C)p.r(C)p.d(T)p.d(T)}|RNA2{r(G)p.r(G)p.r(C)p.r(U)p.r(U)p.r(G)p.r(C)p.r(C)p.r(A)p.r(A)p.r(U)p.r(G)p.r(A)p.r(A)p.r(A)p.r(C)p.r(A)p.r(U)p.r(A)p.d(T)p.d(C)}$$$RNA1{StrandType:ss}|RNA2{StrandType:as}$	44.7%
RNA1{r(A)p.r(U)p.r(C)p.r(C)p.r(A)p.r(A)p.r(A)p.r(C)p.r(C)p.r(C)p.r(A)p.r(G)p.r(A)p.r(U)p.r(G)p.r(A)p.r(C)p.r(C)p.r(C)p.d(T)p.d(T)}|RNA2{r(G)p.r(G)p.r(G)p.r(U)p.r(C)p.r(A)p.r(U)p.r(C)p.r(U)p.r(G)p.r(G)p.r(G)p.r(U)p.r(U)p.r(U)p.r(G)p.r(G)p.r(A)p.r(U)p.d(C)p.d(A)}$$$RNA1{StrandType:ss}|RNA2{StrandType:as}$	44.5%
RNA1{r(C)p.r(A)p.r(G)p.r(C)p.r(A)p.r(U)p.r(U)p.r(U)p.r(G)p.r(U)p.r(C)p.r(U)p.r(C)p.r(G)p.r(A)p.r(U)p.r(A)p.r(U)p.r(U)p.d(T)p.d(T)}|RNA2{r(A)p.r(A)p.r(U)p.r(A)p.r(U)p.r(C)p.r(G)p.r(A)p.r(G)p.r(A)p.r(C)p.r(A)p.r(A)p.r(A)p.r(U)p.r(G)p.r(C)p.r(U)p.r(G)p.d(C)p.d(C)}$$$RNA1{StrandType:ss}|RNA2{StrandType:as}$	95.2%
RNA1{r(A)p.r(G)p.r(C)p.r(A)p.r(C)p.r(A)p.r(A)p.r(U)p.r(G)p.r(U)p.r(U)p.r(C)p.r(U)p.r(G)p.r(C)p.r(A)p.r(G)p.r(G)p.r(U)p.d(T)p.d(T)}|RNA2{r(A)p.r(C)p.r(C)p.r(U)p.r(G)p.r(C)p.r(A)p.r(G)p.r(A)p.r(A)p.r(C)p.r(A)p.r(U)p.r(U)p.r(G)p.r(U)p.r(G)p.r(C)p.r(U)p.d(G)p.d(G)}$$$RNA1{StrandType:ss}|RNA2{StrandType:as}$	102%
RNA1{r(U)p.r(A)p.r(U)p.r(G)p.r(G)p.r(G)p.r(A)p.r(C)p.r(C)p.r(U)p.r(A)p.r(A)p.r(U)p.r(G)p.r(A)p.r(C)p.r(A)p.r(G)p.r(C)p.d(T)p.d(T)}|RNA2{r(G)p.r(C)p.r(U)p.r(G)p.r(U)p.r(C)p.r(A)p.r(U)p.r(U)p.r(A)p.r(G)p.r(G)p.r(U)p.r(C)p.r(C)p.r(C)p.r(A)p.r(U)p.r(A)p.d(A)p.d(T)}$$$RNA1{StrandType:ss}|RNA2{StrandType:as}$	44.4%
RNA1{r(G)p.r(A)p.r(U)p.r(U)p.r(G)p.r(C)p.r(A)p.r(C)p.r(G)p.r(G)p.r(A)p.r(U)p.r(C)p.r(U)p.r(A)p.r(U)p.r(A)p.r(A)p.r(A)p.d(T)p.d(T)}|RNA2{r(U)p.r(U)p.r(U)p.r(A)p.r(U)p.r(A)p.r(G)p.r(A)p.r(U)p.r(C)p.r(C)p.r(G)p.r(U)p.r(G)p.r(C)p.r(A)p.r(A)p.r(U)p.r(C)p.d(T)p.d(C)}$$$RNA1{StrandType:ss}|RNA2{StrandType:as}$	92.4%
RNA1{r(G)p.r(G)p.r(C)p.r(A)p.r(A)p.r(G)p.r(C)p.r(C)p.r(A)p.r(C)p.r(A)p.r(A)p.r(U)p.r(U)p.r(A)p.r(U)p.r(G)p.r(G)p.r(G)p.d(T)p.d(T)}|RNA2{r(C)p.r(C)p.r(C)p.r(A)p.r(U)p.r(A)p.r(A)p.r(U)p.r(U)p.r(G)p.r(U)p.r(G)p.r(G)p.r(C)p.r(U)p.r(U)p.r(G)p.r(C)p.r(C)p.d(A)p.d(A)}$$$RNA1{StrandType:ss}|RNA2{StrandType:as}$	60.2%
RNA1{r(A)p.r(A)p.r(U)p.r(G)p.r(A)p.r(C)p.r(A)p.r(G)p.r(C)p.r(C)p.r(C)p.r(A)p.r(U)p.r(A)p.r(U)p.r(C)p.r(A)p.r(A)p.r(G)p.d(T)p.d(T)}|RNA2{r(C)p.r(U)p.r(U)p.r(G)p.r(A)p.r(U)p.r(A)p.r(U)p.r(G)p.r(G)p.r(G)p.r(C)p.r(U)p.r(G)p.r(U)p.r(C)p.r(A)p.r(U)p.r(U)p.d(A)p.d(G)}$$$RNA1{StrandType:ss}|RNA2{StrandType:as}$	80%
RNA1{r(U)p.r(G)p.r(G)p.r(U)p.r(C)p.r(G)p.r(C)p.r(C)p.r(U)p.r(G)p.r(C)p.r(U)p.r(U)p.r(U)p.r(A)p.r(A)p.r(C)p.r(A)p.r(A)p.d(T)p.d(T)}|RNA2{r(U)p.r(U)p.r(G)p.r(U)p.r(U)p.r(A)p.r(A)p.r(A)p.r(G)p.r(C)p.r(A)p.r(G)p.r(G)p.r(C)p.r(G)p.r(A)p.r(C)p.r(C)p.r(A)p.d(C)p.d(T)}$$$RNA1{StrandType:ss}|RNA2{StrandType:as}$	90.3%
RNA1{r(G)p.r(U)p.r(C)p.r(C)p.r(A)p.r(G)p.r(U)p.r(U)p.r(G)p.r(G)p.r(G)p.r(G)p.r(A)p.r(U)p.r(G)p.r(A)p.r(U)p.r(A)p.r(U)p.d(T)p.d(T)}|RNA2{r(A)p.r(U)p.r(A)p.r(U)p.r(C)p.r(A)p.r(U)p.r(C)p.r(C)p.r(C)p.r(C)p.r(A)p.r(A)p.r(C)p.r(U)p.r(G)p.r(G)p.r(A)p.r(C)p.d(C)p.d(T)}$$$RNA1{StrandType:ss}|RNA2{StrandType:as}$	88.3%
RNA1{r(U)p.r(U)p.r(C)p.r(A)p.r(U)p.r(U)p.r(U)p.r(U)p.r(C)p.r(C)p.r(U)p.r(A)p.r(C)p.r(A)p.r(G)p.r(A)p.r(C)p.r(U)p.r(A)p.d(T)p.d(T)}|RNA2{r(U)p.r(A)p.r(G)p.r(U)p.r(C)p.r(U)p.r(G)p.r(U)p.r(A)p.r(G)p.r(G)p.r(A)p.r(A)p.r(A)p.r(A)p.r(U)p.r(G)p.r(A)p.r(A)p.d(T)p.d(T)}$$$RNA1{StrandType:ss}|RNA2{StrandType:as}$	85%
RNA1{r(U)p.r(U)p.r(A)p.r(U)p.r(C)p.r(C)p.r(A)p.r(U)p.r(U)p.r(U)p.r(G)p.r(U)p.r(U)p.r(C)p.r(A)p.r(C)p.r(U)p.r(G)p.r(C)p.d(T)p.d(T)}|RNA2{r(G)p.r(C)p.r(A)p.r(G)p.r(U)p.r(G)p.r(A)p.r(A)p.r(C)p.r(A)p.r(A)p.r(A)p.r(U)p.r(G)p.r(G)p.r(A)p.r(U)p.r(A)p.r(A)p.d(A)p.d(A)}$$$RNA1{StrandType:ss}|RNA2{StrandType:as}$	23.6%
